Experimental data from the supplement of paper PMC11061612.

What was measured:
Assay in all cases: Bliss excess, mean over the matrix (fraction); higher = more synergy
[1] = test system: ML-2 (Acute Myeloid Leukemia)
Procedure, shortened: (§1)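 Cell lines in DMEM/F12 or RPMI with 10% FBS were plated in 1536-well plates, held 24 hours at 37°C, 5% CO2, then given two-drug dose matrices for 72 hours (DMSO typically 0.2%). Viability was read by CellTiter-Glo 2.0 luminescence and scaled as inhibition from 0 (vehicle wells) to 1 (blank wells). Combination Emax is the second-highest inhibition in the matrix; Bliss excess is observed combination effect minus expected EA + EB − EA·EB, EA and EB being single-agent effects.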

[2] = test system: OE33 (Esophageal Adenocarcinoma)
Procedure, shortened: as §1

[3] = test system: SW982 (Other Solid Carcinomas)
Procedure, shortened: as §1

SK-N-AS (Neuroblastoma) = test system: SK-N-AS (Neuroblastoma)
Procedure, shortened: as §1

[4] = test system: KMRC-1 (Kidney Carcinoma)
Procedure, shortened: as §1

[5] = test system: MV-4-11 (Acute Myeloid Leukemia)
Procedure, shortened: as §1

[6] = test system: NCI-H1993 (Lung Adenocarcinoma)
Procedure, shortened: as §1

[7] = test system: EFO-21 (Ovarian Carcinoma)
Procedure, shortened: as §1

[8] = test system: NCI-H522 (Lung Adenocarcinoma)
Procedure, shortened: as §1

[9] = test system: MDA-MB-453 (Breast Carcinoma)
Procedure, shortened: as §1

[10] = test system: NCI-H1355 (Lung Adenocarcinoma)
Procedure, shortened: as §1

[11] = test system: ME-180 (Cervical Carcinoma)
Procedure, shortened: as §1

[12] = test system: Mo-T (Other Blood Carcinomas)
Procedure, shortened: as §1

[13] = test system: MOLT-4 (T-Lymphoblastic Leukemia)
Procedure, shortened: as §1

[14] = test system: DU-145 (Prostate Carcinoma)
Procedure, shortened: as §1

| Compound | Bliss excess [1] | Bliss excess [2] | Bliss excess [3] | Bliss excess (SK-N-AS (Neuroblastoma)) | Bliss excess [4] | Bliss excess [5] | Bliss excess [6] | Bliss excess [7] | Bliss excess [8] | Bliss excess [9] | Bliss excess [10] | Bliss excess [11] | Bliss excess [12] | Bliss excess [13] | Bliss excess [14] |
| --- | --- | --- | --- | --- | --- | --- | --- | --- | --- | --- | --- | --- | --- | --- | --- |
| C=CCn1c(=O)c2cnc(Nc3ccc(N4CCN(C)CC4)cc3)nc2n1-c1cccc(C(C)(C)O)n1 [AZD1775] + CCc1c2c(nc3ccc(O)cc13)-c1cc3c(c(=O)n1C2)COC(=O)[C@]3(O)CC [SN-38] (first compound max 1 µM, partner max 0.3 µM) | -0.0033 | -0.0694 | -0.0158 | 0.0032 | -0.0817 | -0.0281 | 0.0354 | -0.0193 | 0.0912 | -0.0113 | -0.0622 | -0.0039 | -0.0799 | 0.0188 | -0.0641 |
| C=CCn1c(=O)c2cnc(Nc3ccc(N4CCN(C)CC4)cc3)nc2n1-c1cccc(C(C)(C)O)n1 [AZD1775] + Nc1ccn([C@@H]2O[C@H](CO)[C@@H](O)C2(F)F)c(=O)n1 [Gemcitabine] (first compound max 1 µM, partner max 0.3 µM) | 0.0482 | -0.0157 | -0.0248 | -0.0254 | -0.0495 | 0.0238 | -0.0021 | -0.0653 | 0.0486 | -0.0309 | 0.0478 | 0.0154 | -0.0204 | 0.0162 | -0.0385 |
| CN(CCO)CC[C@H](CSc1ccccc1)Nc1ccc(S(=O)(=O)NC(=O)c2ccc(N3CCC([C@@H](O)c4ccccc4-c4ccc(Cl)cc4)CC3)cc2)cc1S(=O)(=O)C(F)(F)F [AZD4320] + CS(=O)(=O)CCNCc1ccc(-c2ccc3ncnc(Nc4ccc(OCc5cccc(F)c5)c(Cl)c4)c3c2)o1 [Lapatinib] (first compound max 1 µM, 7x7, partner max 10 µM) | 0.0678 | 0.0519 | 0.0799 | -0.0397 | 0.0223 | 0.018 | 0.0682 | -0.0104 | -0.0206 | -0.0554 | 0.0077 | 0.0726 | 0.0485 | 0.0886 | -0.028 |
| Cc1c2c(nn1C)CSCc1cc(n(C)n1)CSc1cc(c3ccccc3c1)OCCCc1c(C(=O)O)n(C)c3c-2c(Cl)ccc13 [AZD5991] + CC(=O)O[C@H]1C(=O)[C@@]2(C)[C@H]([C@H](OC(=O)c3ccccc3)[C@]3(O)C[C@H](OC(=O)[C@H](O)[C@@H](NC(=O)c4ccccc4)c4ccccc4)C(C)=C1C3(C)C)[C@]1(OC(C)=O)CO[C@@H]1C[C@@H]2O [Paclitaxel] (first compound max 1 µM, 7x7, partner max 3 µM) | 0.0157 | -0.0386 | -0.0039 | -0.0065 | 0.0286 | 0.0129 | -0.037 | 0.0151 | 0.056 | 0.231 | -0.0431 | 0.0258 | -0.0521 | 0.0219 | 0.0077 |
| Cc1c2c(nn1C)CSCc1cc(n(C)n1)CSc1cc(c3ccccc3c1)OCCCc1c(C(=O)O)n(C)c3c-2c(Cl)ccc13 [AZD5991] + CS(=O)(=O)CCNCc1ccc(-c2ccc3ncnc(Nc4ccc(OCc5cccc(F)c5)c(Cl)c4)c3c2)o1 [Lapatinib] (first compound max 1 µM, 7x7, partner max 10 µM) | 0.0008 | -0.042 | -0.0151 | -0.0363 | -0.0282 | 0.0343 |  | 0.0347 | 0.0118 | 0.0116 | 0.0127 | 0.0624 | -0.0344 | 0.0254 | -0.034 |
| Cc1c2c(nn1C)CSCc1cc(n(C)n1)CSc1cc(c3ccccc3c1)OCCCc1c(C(=O)O)n(C)c3c-2c(Cl)ccc13 [AZD5991] + Nc1ccn([C@@H]2O[C@H](CO)[C@@H](O)C2(F)F)c(=O)n1 [Gemcitabine] (first compound max 1 µM, 7x7, partner max 0.3 µM) | 0.0116 | 0.0018 | -0.0594 | 0.0183 | -0.0638 | 0.0035 | -0.0064 | -0.0204 | 0.091 | 0.0145 | -0.0333 | -0.036 | -0.0226 | 0.0224 | -0.0284 |
| C[C@@H]1COCCN1c1cc(C2([S@](C)(=N)=O)CC2)nc(-c2ccnc3[nH]ccc23)n1 [AZD6738] + C1CC(C1)(C(=O)[O-])C(=O)[O-].N.N.[Pt+2] [Carboplatin] (first compound max 10 µM, 7x7, partner max 10 µM) | -0.0111 | -0.0416 | -0.0453 | -0.0538 | -0.0289 | -0.0339 | -0.0211 | -0.0606 | -0.0584 | -0.0327 | -0.0345 | -0.013 | -0.0272 | -0.013 | -0.043 |
| C[C@@H]1COCCN1c1cc(C2([S@](C)(=N)=O)CC2)nc(-c2ccnc3[nH]ccc23)n1 [AZD6738] + Nc1ccn([C@@H]2O[C@H](CO)[C@@H](O)C2(F)F)c(=O)n1 [Gemcitabine] (first compound max 10 µM, 7x7, partner max 0.3 µM) | 0.108 | -0.0518 | 0.0352 | 0.0469 | 0.0601 | 0.0067 | -0.0098 | 0.0847 | 0.122 | -0.0251 | 0.0732 | 0.0564 | 0.002 | 0.0315 | 0.0742 |
| C[C@@H](Nc1cc(F)cc(F)c1)c1cc(C(=O)N(C)C)cc2c(=O)cc(N3CCOCC3)oc12 [AZD8186] + C1CN(CCC1(C(=O)N[C@@H](CCO)C2=CC=C(C=C2)Cl)N)C3=NC=NC4=C3C=CN4 [AZD5363] (first compound max 10 µM, 7x7, partner max 10 µM) | -0.0217 | -0.0329 | -0.0763 | -0.0294 | -0.0524 | 0.0103 | 0.0154 | -0.0376 | -0.0426 | 0.0219 | -0.0244 | -0.0133 | -0.0393 | -0.0083 | -0.0038 |
| C[C@@H](Nc1cc(F)cc(F)c1)c1cc(C(=O)N(C)C)cc2c(=O)cc(N3CCOCC3)oc12 [AZD8186] + CC(=O)c1c(C)c2cnc(Nc3ccc(N4CCNCC4)cn3)nc2n(C2CCCC2)c1=O [Palbociclib] (first compound max 10 µM, 7x7, partner max 10 µM) | 0.103 | 0.0115 | 0.0551 | 0.0334 | -0.0156 | 0.0769 | 0.0847 | -0.0175 | -0.0596 | 0.0491 | 0.0321 | 0.0177 | -0.0319 | 0.0712 | 0.0147 |
| C[C@@H](Oc1cc(-c2cnn(C3CCNCC3)c2)cnc1N)c1c(Cl)ccc(F)c1Cl [Crizotinib] + CC1=C(C(=CC=C1)Cl)NC(=O)C2=CN=C(S2)NC3=CC(=NC(=N3)C)N4CCN(CC4)CCO [Dasatinib] (first compound max 10 µM, 7x7, partner max 2 µM) | -0.0165 | 0.0828 | 0.0386 | -0.0164 | 0.0644 | 0.0161 | -0.0147 | 0.0054 | -0.0033 | -0.0494 | -0.0431 | 0.038 | -0.0588 | -0.0209 | 0.0158 |
| C[C@@H](Oc1cc(-c2cnn(C3CCNCC3)c2)cnc1N)c1c(Cl)ccc(F)c1Cl [Crizotinib] + Cn1cnc2c(F)c(Nc3ccc(Br)cc3Cl)c(C(=O)NOCCO)cc21 [Selumetinib] (first compound max 10 µM, 7x7, partner max 10 µM) | -0.0083 | -0.0199 | 0.0165 | -0.0118 | -0.0191 | -0.0232 | 0.0034 | -0.0233 | -0.0495 | -0.0374 | -0.0223 | 0.0308 | -0.047 | -0.0843 | -0.0321 |
| CS(=O)(=O)CCNCc1ccc(-c2ccc3ncnc(Nc4ccc(OCc5cccc(F)c5)c(Cl)c4)c3c2)o1 [Lapatinib] + Cn1cnc2c(F)c(Nc3ccc(Br)cc3Cl)c(C(=O)NOCCO)cc21 [Selumetinib] (first compound max 10 µM, 7x7, partner max 10 µM) | -0.151 | -0.0143 | 0.034 | 0.0034 | -0.0772 | 0.0464 | 0.0118 | 0.0118 | -0.0304 | -0.0421 | -0.0323 | -0.028 | -0.0542 | 0.0852 | 0.0008 |
| O=C(c1cc(Cc2n[nH]c(=O)c3ccccc23)ccc1F)N1CCN(C(=O)C2CC2)CC1 [Olaparib] + CC1(C)CCC(CN2CCN(c3ccc(C(=O)NS(=O)(=O)c4ccc(NCC5CCOCC5)c([N+](=O)[O-])c4)c(Oc4cnc5[nH]ccc5c4)c3)CC2)=C(c2ccc(Cl)cc2)C1 [Venetoclax] (first compound max 10 µM, 7x7, partner max 1 µM) | 0.115 | -0.0457 | -0.0429 | -0.031 | -0.0522 | 0.0475 | -0.0397 | -0.0495 | -0.0627 | -0.0323 | -0.0524 | -0.0274 | -0.0336 | 0.124 | -0.0254 |
| O=C(c1cc(Cc2n[nH]c(=O)c3ccccc23)ccc1F)N1CCN(C(=O)C2CC2)CC1 [Olaparib] + CN(CC[C@H](CSC1=CC=CC=C1)NC2=C(C=C(C=C2)S(=O)(=O)NC(=O)C3=CC=C(C=C3)N4CCC(CC4)[C@H](C5=CC=CC=C5C6=CC=C(C=C6)Cl)O)S(=O)(=O)C(F)(F)F)CCO [AZD4320] (first compound max 10 µM, 7x7, partner max 1 µM) | 0.0877 | -0.037 | 0.0389 | -0.0291 | -0.0501 | -0.0086 | -0.0405 | -0.0415 | -0.0566 | -0.0342 | -0.0336 | -0.021 | -0.0065 | 0.0581 | -0.0305 |
| O=C(c1cc(Cc2n[nH]c(=O)c3ccccc23)ccc1F)N1CCN(C(=O)C2CC2)CC1 [Olaparib] + COc1nnc2ccc(N3CCC(c4ccc(OCCN5CCN(C)C(=O)[C@H]5C)cc4)CC3)nn12 [AZD5153] (first compound max 10 µM, 7x7, partner max 1 µM) | -0.0153 | -0.057 | -0.0614 | -0.0662 | -0.0556 | 0.008 | -0.0529 | -0.0719 | -0.0528 | -0.0483 | -0.11 | -0.0279 | -0.0413 | 0.023 | -0.0708 |
| O=C(c1cc(Cc2n[nH]c(=O)c3ccccc23)ccc1F)N1CCN(C(=O)C2CC2)CC1 [Olaparib] + Cc1c2c(nn1C)CSCc1cc(n(C)n1)CSc1cc(c3ccccc3c1)OCCCc1c(C(=O)O)n(C)c3c-2c(Cl)ccc13 [AZD5991] (first compound max 10 µM, 7x7, partner max 1 µM) | 0.0318 | -0.0543 | -0.0011 | -0.0347 | -0.0784 | 0.0735 | -0.0275 | -0.0533 | -0.0062 | -0.0038 | -0.0595 | -0.0363 | -0.0492 | 0.0336 | -0.0348 |
